Like-named read-outs stand apart in the source and are kept apart here.
Legend:
human GPR119 = molecular target: T1, human GPR119 (Homo sapiens, UniProt Q8TDV5); test: hGPR119 agonistic activity, LANCE Ultra cAMP accumulation assay in CHO K1 cells stably expressing human GPR119; type: cell-based; conditions: for Emax: CHO-K1, 1 h, read-out: GPR119 activation %max (inherent activity)
T1 construct: expressed in transfected cells; host or cells: CHO K1
T1 sequence (Q8TDV5 1-335): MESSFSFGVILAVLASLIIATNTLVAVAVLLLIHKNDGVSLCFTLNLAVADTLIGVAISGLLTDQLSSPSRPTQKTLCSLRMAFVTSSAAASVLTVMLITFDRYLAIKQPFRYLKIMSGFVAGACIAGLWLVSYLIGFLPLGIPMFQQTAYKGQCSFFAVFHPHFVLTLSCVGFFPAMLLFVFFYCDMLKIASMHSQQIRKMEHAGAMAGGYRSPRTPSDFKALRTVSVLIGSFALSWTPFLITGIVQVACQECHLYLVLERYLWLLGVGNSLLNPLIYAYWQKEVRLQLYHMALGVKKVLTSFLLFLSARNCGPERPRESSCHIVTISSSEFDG
Procedure: CHO K1 cells stably transfected with human GPR119 were grown at 37 °C, […] and 5% CO2 in 75 cm flasks containing DMEM/F12 (1:1) media with added 10% FBS (Gibco®), Geneticin (Gibco®) and grown until 90% confluent. Cells were then washed (PBS), lifted with cell dissociation solution (Invtrogen®), counted and used for cAMP accumulation assays and/or passaging (1:10). Following the manufacturer’s instructions for the LANCE® Ultra cAMP assay (Perkin Elmer), cell transfected with hGPR119 were centrifuged (1000 rpm, 5 min), re-suspended in cAMP assay buffer (HBSS, 0.1% BSA, 0.5 mM IBMX and 5 mM HEPES) and seeded at 5000 cells/well in optiplate-384 (Perkin Elmer). […] Cell lysis buffers (4X Eu-cAMP tracer solution and 4X ULight™-anti-cAMP solution) were added to each well, and the plates were incubated at r. t. for 1 h before being read on Envision (Perkin Elmer). The assay was performed for three replicates for each concentration.

C57BL/6N mice = test: oral glucose tolerance test (oGTT), single dose, in C57BL/6N mice; type: in vivo; conditions: for blood glucose AUC0–120 min: mean ± SE, n = 8, vehicle 24.69 ± 3.08; for reduction of blood glucose AUC0–120 min: oGTT 3 g/kg glucose 4 h after dose, vs vehicle, C57BL/6N mice; for blood glucose reduction effect: single dose 15 and 30 mg/kg, oGTT in C57BL/6N mice
Procedure: Figure 2. Single dose of compounds 10 and 15 on oGTT in C57BL/6N mice.
AUC0–2h(mmol/L) = (BG0+BG15)×0.25/2 + (BG15+BG30)×0.25/2 + (BG30+BG60)×0.5/2 + (BG60+BG90)×0.5/2 + (BG90+BG120)×0.5/2.

mice = test system: mice; parameters: method as in PMID 30100020, PMID 30685641; conditions: compared with positive control ref 31, 32; cited from earlier work
GPR119 = test system: GPR119; parameters: method as in PMID 30100020, PMID 30685641; conditions: earlier work of the authors ref 31, 32; read-out: EC50 (GPR119 agonistic potency); cited from earlier work
[1] = cAMP stimulation % compared to maximal effect of GSK1292263
[2] = human GPR119 in CHO K1 cells, cAMP, 1 h incubation, read-out: GPR119 activation EC50

| Emax (human GPR119; [1]) [%] | EC50 (human GPR119; [2]) [nM] | GPR119 activation %max (inherent activity) (human GPR119; [1]) [%] | SMILES | further results |
| --- | --- | --- | --- | --- |
| 66.1 | 120 |  | CC(C)OC(=O)N1CCC(Nc2ncnc3c2OCCN3c2ccc(C#N)cc2F)CC1 [Compound 22, Isopropyl 4-((8-(4-cyano-2-fluorophenyl)-7,8-dihydro-6H-pyrimido[5,4-b][1,4]oxazin-4-yl)amino)piperidine-1-carboxylate] |  |
| 62.7 | 40 |  | N#Cc1ccc(N2CCOc3c(NC4CCN(c5ncc(Cl)cn5)CC4)ncnc32)c(F)c1 [Compound 24, 4-(4-((1-(5-Chloropyrimidin-2-yl)piperidin-4-yl)amino)-6,7-dihydro-8H-pyrimido[5,4-b][1,4]oxazin-8-yl)-3-fluorobenzonitrile] |  |
|  | 82 | 79.6 | CC(C)(C)OC(=O)N1CCN(C(=O)CN2[C@@H]3CC[C@H]2C[C@@H](Nc2ncnc4c2OCCN4c2ccc(C#N)cc2F)C3)CC1 [Compound 20, tert-Butyl 4-(2-((endo)-3-((8-(4-cyano-2-fluorophenyl)-7,8-dihydro-6H-pyrimido[5,4-b][1,4]oxazin-4-yl)amino)-8-azabicyclo[3.2.1]octan-8-yl)acetyl)piperazine-1-carboxylate] |  |
| 70.7 | 44 |  | CCc1cnc(N2CCC(Nc3ncnc4c3OCCN4c3ccc(C#N)cc3F)CC2)nc1 [Compound 23, 4-(4-((1-(5-Ethylpyrimidin-2-yl)piperidin-4-yl)amino)-6,7-dihydro-8H-pyrimido[5,4-b][1,4]oxazin-8-yl)-3-fluorobenzonitrile] |  |
| 100 | 90 |  | CC(C)(C)OC(=O)N1CCN(C(=O)CN2CCC(Nc3ncnc4c3OCCN4c3ccc(C#N)cc3F)CC2)CC1 [Compound 25, tert-Butyl 4-(2-(4-((8-(4-cyano-2-fluorophenyl)-7,8-dihydro-6H-pyrimido[5,4-b][1,4]oxazin-4-yl)amino)piperidin-1-yl)acetyl)piperazine-1-carboxylate] |  |

The next lines start with the compound.

| SMILES | Emax (human GPR119; [1]) [%] | EC50 (human GPR119; [2]) [nM] | GPR119 activation %max (inherent activity) (human GPR119; [1]) [%] | further results |
| --- | --- | --- | --- | --- |
| CC(C)OC(=O)N1[C@@H]2CC[C@H]1C[C@@H](Nc1ncnc3c1OCCN3c1ccc(C#N)cc1F)C2 [Compound 15, Isopropyl (endo)-3-((8-(4-cyano-2-fluorophenyl)-7,8-dihydro-6H-pyrimido[5,4-b][1,4]oxazin-4-yl)amino)-8-azabicyclo[3.2.1]octane-8-carboxylate] |  | 12 | 146.3 | EC50 ratio compound 15 vs. compound 22 (human GPR119; carbamate substituted derivatives, 15 vs. 22): 10 times; blood glucose AUC0–120 min (C57BL/6N mice; 15 mg/kg single dose): 21.1 ± 3.92 mmol·h/L; reduction of blood glucose AUC0–120 min (C57BL/6N mice; 15 mg/kg single dose): 14.5%; blood glucose AUC0–120 min (C57BL/6N mice; 30 mg/kg single dose): 18.9 ± 2.58 mmol·h/L; reduction of blood glucose AUC0–120 min (C57BL/6N mice; 30 mg/kg single dose): 23.4%; blood glucose reduction effect (C57BL/6N mice): dose-dependent manner |
| CC(C)c1noc(N2CCC(COc3ccc(-c4ccc(S(C)(=O)=O)cc4)nc3)CC2)n1 [GSK-1292263, reference compound] |  |  |  | EC50 (human GPR119): 6.6 nM |
| CC(C)(C)OC(=O)N1[C@@H]2CC[C@H]1C[C@@H](Nc1ncnc3c(Nc4ccc(C#N)cc4F)ncnc13)C2 [Compound 2] |  |  |  | glucose-lowering effect in oGTT (mice): did not show the significant glucose-lowering effect; EC50 (GPR119): 8.1 nM |
| CC(C)(C)OC(=O)N[C@@H]1CCCN(C(=O)CN2[C@@H]3CC[C@H]2C[C@@H](Nc2ncnc4c2OCCN4c2ccc(C#N)cc2F)C3)C1 [Compound 19, tert-Butyl ((R)-1-(2-((endo)-3-((8-(4-cyano-2-fluorophenyl)-7,8-dihydro-6H-pyrimido[5,4-b][1,4]oxazin-4-yl)amino)-8-azabicyclo[3.2.1]octan-8-yl)acetyl)piperidin-3-yl)carbamate] |  | 68 | 75.6 |  |
| CCc1cnc(N2[C@@H]3CC[C@H]2C[C@@H](Nc2ncnc4c2OCCN4c2ccc(C#N)cc2F)C3)nc1 [Compound 16, 4-(4-(((endo)-8-(5-Ethylpyrimidin-2-yl)-8-azabicyclo[3.2.1]octan-3-yl)amino)-6,7-dihydro-8H-pyrimido[5,4-b][1,4]oxazin-8-yl)-3-fluorobenzonitrile] |  | 130 | 60.5 |  |
| CC(C)(C)OC(=O)N1C2CCC1CC(Nc1ncnc3c1OCCN3c1ccc(C#N)cc1F)C2 (stereo not drawn) [Compound 10, tert-Butyl (endo)-3-((8-(4-cyano-2-fluorophenyl)-7,8-dihydro-6H-pyrimido[5,4-b][1,4]oxazin-4-yl)amino)-8-azabicyclo[3.2.1]octane-8-carboxylate] |  |  |  | EC50 (human GPR119): 13 nM; Emax (human GPR119): 83.9%; blood glucose AUC0–120 min (C57BL/6N mice; 15 mg/kg single dose): 22.1 ± 4.28 mmol·h/L; reduction of blood glucose AUC0–120 min (C57BL/6N mice; 15 mg/kg single dose): 10.7%; blood glucose AUC0–120 min (C57BL/6N mice; 30 mg/kg single dose): 20.1 ± 2.27 mmol·h/L; reduction of blood glucose AUC0–120 min (C57BL/6N mice; 30 mg/kg single dose): 18.8%; blood glucose reduction effect (C57BL/6N mice): dose-dependent manner |
| CC(C)(C)OC(=O)N1C2CCCC1CC(Nc1ncnc3c1OCCN3c1ccc(C#N)cc1F)C2 (centres unmarked) [Compound 13, tert-Butyl 3-((8-(4-cyano-2-fluorophenyl)-7,8-dihydro-6H-pyrimido[5,4-b][1,4]oxazin-4-yl)amino)-9-azabicyclo[3.3.1]nonane-9-carboxylate] | 22.7 | > 10000 |  |  |
| CC(C)(C)OC(=O)N1CCC(Nc2ncnc3c2OCCN3c2ccc(C#N)cc2F)CC1 [Compound 12, tert-Butyl 4-((8-(4-cyano-2-fluorophenyl)-7,8-dihydro-6H-pyrimido[5,4-b][1,4]oxazin-4-yl)amino)piperidine-1-carboxylate] | 63.5 | 200 |  |  |
| CC(C)(C)OC(=O)N1C2CCC1CC(CNc1ncnc3c1OCCN3c1ccc(C#N)cc1F)C2 (stereo not drawn) [Compound 11, tert-Butyl (exo)-3-(((8-(4-cyano-2-fluorophenyl)-7,8-dihydro-6H-pyrimido[5,4-b][1,4]oxazin-4-yl)amino)methyl)-8-azabicyclo[3.2.1]octane-8-carboxylate] | 45.9 | 1800 |  |  |
| N#Cc1ccc(N2CCOc3c(NC4CC5CCC(C4)N5CC(=O)N4CCn5c(nnc5C(F)(F)F)C4)ncnc32)c(F)c1 (stereo not drawn) [Compound 18, 3-Fluoro-4-(4-(((endo)-8-(2-oxo-2-(3-(trifluoromethyl)-5,6-dihydro-[1,2,4]triazolo[4,3-a]pyrazin-7(8H)-yl)ethyl)-8-azabicyclo[3.2.1]octan-3-yl)amino)-6,7-dihydro-8H-pyrimido[5,4-b][1,4]oxazin-8-yl)benzonitrile] |  | 110 | 100 |  |
| CC(C)(C)OC(=O)N1[C@@H]2CC[C@H]1C[C@@H](Nc1ncnc3c(Nc4ccc(S(C)(=O)=O)cc4F)ncnc13)C2 [Compound 1] |  |  |  | glucose-lowering effect in oGTT (mice): did not show the significant glucose-lowering effect; EC50 (GPR119): 2.2 nM |
| N#Cc1ccc(N2CCOc3c(N[C@H]4C[C@H]5CC[C@@H](C4)N5c4ncc(Cl)cn4)ncnc32)c(F)c1 [Compound 17, 4-(4-(((endo)-8-(5-Chloropyrimidin-2-yl)-8-azabicyclo[3.2.1]octan-3-yl)amino)-6,7-dihydro-8H-pyrimido[5,4-b][1,4]oxazin-8-yl)-3-fluorobenzonitrile] |  | 250 | 71.2 |  |
